Tests used:
[1] = Increase in Bcl2 expression in rat hippocampal neurons at 10 nM after 48 hrs by Western immunoblotting relative to control; type: functional, Hippocampus, Hippocampal neurone
[2] = Increase in spinophilin expression in rat hippocampal neurons at 10 nM after 48 hrs by Western immunoblotting relative to control; type: functional, Hippocampus, Hippocampal neurone
Estrogen receptor beta = Estrogen receptor beta (Homo sapiens, UniProt Q92731)
Description: Binding affinity to human ERbeta

[3] = Effect on glutamate-induced loss of metabolic viability in rat hippocampal neurons assessed as increase in neuronal viability at 1000 nM after 48 hrs relative to glutamate; type: functional, Hippocampus, Hippocampal neurone
Estrogen receptor = target: T1, Estrogen receptor (Homo sapiens, UniProt P03372)
T1 sequence (P03372 whole entry): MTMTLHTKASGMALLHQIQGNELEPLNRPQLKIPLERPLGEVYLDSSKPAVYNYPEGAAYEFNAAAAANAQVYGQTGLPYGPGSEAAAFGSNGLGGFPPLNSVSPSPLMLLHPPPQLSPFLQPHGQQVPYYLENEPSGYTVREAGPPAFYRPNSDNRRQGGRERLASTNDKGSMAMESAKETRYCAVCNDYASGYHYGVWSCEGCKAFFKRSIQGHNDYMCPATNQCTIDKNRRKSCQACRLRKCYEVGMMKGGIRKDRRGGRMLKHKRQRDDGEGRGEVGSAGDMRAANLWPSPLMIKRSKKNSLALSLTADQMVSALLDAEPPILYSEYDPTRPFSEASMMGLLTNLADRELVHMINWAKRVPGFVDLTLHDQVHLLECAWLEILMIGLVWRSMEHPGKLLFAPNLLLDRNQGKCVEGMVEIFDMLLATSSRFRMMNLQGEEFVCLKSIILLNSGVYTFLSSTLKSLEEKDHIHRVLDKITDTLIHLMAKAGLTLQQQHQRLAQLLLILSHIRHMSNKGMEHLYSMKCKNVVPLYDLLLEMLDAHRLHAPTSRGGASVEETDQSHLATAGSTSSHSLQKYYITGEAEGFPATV
Description: Binding affinity to human ERalpha

[4] = Effect on glutamate-induced neurotoxicity in rat hippocampal neurons assessed increase in neuronal membrane integrity at 1000 nM after 48 hrs relative to glutamate; type: functional, Hippocampus, Hippocampal neurone
[5] = Effect on glutamate-induced neurotoxicity in rat hippocampal neurons assessed increase in neuronal membrane integrity at 100 nM after 48 hrs relative to glutamate; type: functional, Hippocampus, Hippocampal neurone
[6] = Effect on glutamate-induced neurotoxicity in rat hippocampal neurons assessed increase in neuronal membrane integrity at 1 nM after 48 hrs relative to glutamate; type: functional, Hippocampus, Hippocampal neurone
[7] = Effect on glutamate-induced loss of metabolic viability in rat hippocampal neurons assessed as increase in neuronal viability at 1 nM after 48 hrs relative to glutamate; type: functional, Hippocampus, Hippocampal neurone
Hippocampal neurone = experiment: Increase in Akt phosphorylation in rat hippocampal neurons at 100 nM after 30 mins by Western immunoblotting relative to control; type: tissue-based; details: Hippocampus
[8] = Effect on glutamate-induced loss of metabolic viability in rat hippocampal neurons assessed as increase in neuronal viability at 10 nM after 48 hrs relative to glutamate; type: functional, Hippocampus, Hippocampal neurone
[9] = Effect on glutamate-induced loss of metabolic viability in rat hippocampal neurons assessed as increase in neuronal viability at 100 nM after 48 hrs relative to glutamate; type: functional, Hippocampus, Hippocampal neurone
[10] = Effect on glutamate-induced neurotoxicity in rat hippocampal neurons assessed increase in neuronal membrane integrity at 10 nM after 48 hrs relative to glutamate; type: functional, Hippocampus, Hippocampal neurone
[11] = Increase in ERK2 phosphorylation in rat hippocampal neurons at 100 nM after 30 mins by Western immunoblotting relative to control; type: functional, Hippocampus, Hippocampal neurone
[12] = Increase in Bcl-XL expression in rat hippocampal neurons at 10 nM after 48 hrs by Western immunoblotting relative to control; type: functional, Hippocampus, Hippocampal neurone
Homo sapiens = organism: Homo sapiens; experiment: Selectivity for ERbeta over ERalpha

Estrogen receptor beta, sequence (Q92731 whole entry): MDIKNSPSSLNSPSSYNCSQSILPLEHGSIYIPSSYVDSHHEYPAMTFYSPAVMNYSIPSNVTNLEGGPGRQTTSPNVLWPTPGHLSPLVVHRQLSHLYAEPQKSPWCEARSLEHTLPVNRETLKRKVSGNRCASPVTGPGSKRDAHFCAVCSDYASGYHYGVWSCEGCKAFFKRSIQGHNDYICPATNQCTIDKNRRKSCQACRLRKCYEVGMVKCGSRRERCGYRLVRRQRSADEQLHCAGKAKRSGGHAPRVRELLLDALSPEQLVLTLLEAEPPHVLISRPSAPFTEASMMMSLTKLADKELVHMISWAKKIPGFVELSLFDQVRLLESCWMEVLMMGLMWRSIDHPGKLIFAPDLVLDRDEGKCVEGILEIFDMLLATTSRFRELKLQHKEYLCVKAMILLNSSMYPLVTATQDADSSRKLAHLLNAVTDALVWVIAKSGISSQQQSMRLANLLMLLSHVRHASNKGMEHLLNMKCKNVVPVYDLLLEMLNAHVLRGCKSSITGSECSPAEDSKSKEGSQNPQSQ

Selectivity ratio (Homo sapiens) | SMILES | Activity [1] [%] | Activity [2] [%] | IC50 (Estrogen receptor beta) [µM] | Activity [3] [%] | IC50 (Estrogen receptor) [µM] | Activity [4] [%] | Activity [5] [%] | Activity [6] [%] | Activity [7] [%] | Activity (Hippocampal neurone) [%] | Activity [8] [%] | Activity [9] [%] | Activity [10] [%] | Activity [11] [%] | Activity [12] [%]
 | CC(C)CCC[C@@H](C)CCC[C@@H](C)CCC[C@@H]1Cc2cc(O)ccc2[C@H]2CC[C@]3(C)[C@@H](O)CC[C@H]3[C@H]12 | 23.4 | 61.7 | 0.267 | 25.6 | 0.193 | 59.1 | 67 | 38.6 | 2.7 | 139 | 9.3 | 28.4 | 44.1 | 46.3 | 58
48 | Oc1ccc(/C=C/c2cc(O)cc(O)c2)cc1 |  |  |  |  |  |  |  |  |  |  |  |  |  |  | 

Reference: ChEMBL document CHEMBL1148765, “Design, synthesis, and estrogenic activity of a novel estrogen receptor modulator--a hybrid structure of 17beta-estradiol and vitamin E in hippocampal neurons” (J Med Chem, 2007)
